These are literature values, as cited in patent US10001469B2, “Use of GPR83 to identify pruritus-related substances” (University of Miyazaki, priority 2010, dated 2018).

Data set [1] has as its system HK-1-induced scratching behavior. The note with it: pre-administration, Non-patent Documents 7 and 8; cited from earlier work.
Data set [2] concerns SP-induced scratching behavior. Conditions: pre-administration, Non-patent Documents 7 and 8; cited from earlier work.
For data set [3], the system named is intrathecally catheterized rats. Conditions: depending on the concentrations of peptides administered, Non-patent Document 7; cited from earlier work.
The test system of a further data set is thermal hyperalgesia. Conditions: intrathecal administration; Non-patent Documents 7, 9, 10, 11; cited from earlier work.
The next data set addresses NK1R (Homo sapiens, UniProt P25103). Conditions: Non-patent Documents 4, 5, and 6; cited from earlier work.

No end group written: not given here.

NK1R, sequence (P25103 whole entry, species assumed): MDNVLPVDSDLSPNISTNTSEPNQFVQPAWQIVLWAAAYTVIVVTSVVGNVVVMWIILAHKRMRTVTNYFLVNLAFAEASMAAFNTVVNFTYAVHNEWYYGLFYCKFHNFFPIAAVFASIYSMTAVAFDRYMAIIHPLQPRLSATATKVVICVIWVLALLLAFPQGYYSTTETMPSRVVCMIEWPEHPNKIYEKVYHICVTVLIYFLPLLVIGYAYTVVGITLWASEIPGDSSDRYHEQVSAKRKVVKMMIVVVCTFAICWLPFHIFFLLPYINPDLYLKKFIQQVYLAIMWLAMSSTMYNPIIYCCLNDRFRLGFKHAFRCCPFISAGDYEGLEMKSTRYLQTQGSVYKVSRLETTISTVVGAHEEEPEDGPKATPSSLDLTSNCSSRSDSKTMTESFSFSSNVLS

Turning to `Ic1ccccc1CN[C@@H]1C2CCN(CC2)[C@@H]1C(c1ccccc1)c1ccccc1` (racemic) [L-703,606], in data set [1], the “suppression of HK-1-induced scratching behavior” value is “suppressed”. For the same compound, the “suppression of SP-induced scratching behavior” value in data set [2] was “suppressed”.

As for “Arg-Ser-Arg-Thr-Arg-Gln-Phe-Tyr-Gly-Leu-Met-NH2 (RSRTRQFYGLM-NH2; listed as Homo sapiens) [HK-1]”, the “induction of scratching behavior by intrathecal administration” value in data set [3] is “induces scratching behavior”. Moreover, the “induction of thermal hyperalgesia” value in the data set on thermal hyperalgesia is given as “no such reaction at all”. The “affinity for NK1R” value in the data set with NK1R is on record as “high affinity”.
